Assay results published in patent US11873298B2, “Compounds and uses thereof” (JANSSEN PHARMACEUTICA NV, priority 2017, dated 2024).
pIC50: −log10 of the molar value.

Columns and labels:
[1] = biological target: T1, SCD1 (Homo sapiens, UniProt O00767); test: Growth inhibition of humanized yeast strain expressing SCD1 as sole desaturase; format: cell-based
T1 construct: host or cells: S. cerevisiae ole1Δ strain (W303 pdr1Δ pdr3Δ background), plasmid pRS316 with TDH3 promoter and CYC1 terminator
T1 sequence (O00767 1-359): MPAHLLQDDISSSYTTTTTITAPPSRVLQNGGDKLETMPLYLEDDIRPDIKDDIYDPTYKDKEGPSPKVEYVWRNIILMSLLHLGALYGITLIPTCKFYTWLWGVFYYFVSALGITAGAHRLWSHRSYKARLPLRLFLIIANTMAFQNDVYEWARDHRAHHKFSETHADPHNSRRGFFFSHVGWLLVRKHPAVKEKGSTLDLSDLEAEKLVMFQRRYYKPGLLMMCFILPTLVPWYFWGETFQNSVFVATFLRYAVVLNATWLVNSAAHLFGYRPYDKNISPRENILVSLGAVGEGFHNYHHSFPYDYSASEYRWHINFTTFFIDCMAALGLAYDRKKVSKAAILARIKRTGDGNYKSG
Summary of the method: (§1)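 Yeast ole1Δ strain (W303 pdr1Δ pdr3Δ background) carrying plasmid-borne Ole1, SCD1 or SCD5 as sole desaturase was grown in uracil-lacking media, pre-cultured in raffinose for 6 h, then seeded in galactose medium with compound in DMSO. Growth was read as OD600 after 30° C. incubation: 24 h for Ole1, 40 h for SCD1/SCD5.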

[2] = biological target: T2, SCD5 (Homo sapiens, UniProt Q86SK9); test: Growth inhibition of humanized yeast strain expressing SCD5 as sole desaturase; format: cell-based
T2 construct: host or cells: S. cerevisiae ole1Δ strain (W303 pdr1Δ pdr3Δ background), plasmid pRS316 with TDH3 promoter and CYC1 terminator
T2 sequence (Q86SK9 1-330): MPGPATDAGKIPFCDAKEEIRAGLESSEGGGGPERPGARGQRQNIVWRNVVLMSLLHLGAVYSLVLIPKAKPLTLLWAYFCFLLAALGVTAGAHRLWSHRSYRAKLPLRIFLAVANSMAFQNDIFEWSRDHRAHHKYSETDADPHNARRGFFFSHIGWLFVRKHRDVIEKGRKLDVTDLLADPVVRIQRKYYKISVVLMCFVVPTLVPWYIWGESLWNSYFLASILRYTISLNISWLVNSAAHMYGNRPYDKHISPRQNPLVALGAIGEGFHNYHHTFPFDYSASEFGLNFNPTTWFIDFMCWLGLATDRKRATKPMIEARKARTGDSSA
Summary of the method: as §1

[3] = growth inhibition of humanized yeast strain expressing human SCD1
[4] = growth inhibition of humanized yeast strain expressing human SCD5

SMILES | pIC50 [1, 3] | pIC50 [2, 4] | pIC50 ([1]; humanized yeast strain, 40 h) | pIC50 ([2]; humanized yeast strain, 40 h)
CC(=O)N1CC(n2cc3ccc(-c4noc(C5CCN(C(=O)OC(C)(C)C)CC5)n4)cc3n2)C1 [Compound 711] | < 4.35 | < 4.35 |  | 
O=C(c1ccccc1)N1CCN(c2noc(-c3ccc4cnn(C5COC5)c4c3)n2)CC1 [Compound 712] | < 4.35 | 7.80 |  | 
COC(=O)N1CCN(c2noc(-c3ccc4cnn(C5COC5)c4c3)n2)CC1 [Compound 713] | 5.25 | 8.00 |  | 
CC(C)n1ncc2ccc(-c3nc(C4CCN(C(=O)c5ncccc5F)CC4)no3)cc21 [Compound 714] | < 4.35 | 6.64 |  | 
CC(C)n1ncc2ccc(-c3nc(C4CCN(C(=O)c5sccc5Cl)CC4)no3)cc21 [Compound 715] | < 4.35 | 7.32 |  | 
CC(C)n1ncc2ccc(-c3nc(C4CCN(C(=O)c5ncccn5)CC4)no3)cc21 [Compound 716] | < 4.35 | < 4.35 |  | 
CC(C)n1ncc2ccc(-c3noc(C4CCN(C(=O)C(C)(C)C#N)CC4)n3)cc21 [Compound 717] | < 4.35 | 5.77 |  | 
O=C(c1sccc1Cl)N1CCC(c2nc(-c3ccc4cnn(C5COC5)c4c3)no2)CC1 [Compound 718] | < 4.35 | 6.20 |  | 
CC(C)(C)OC(=O)N1CCC(c2nc(-c3ccc4cn(C5CCCOC5)nc4c3)no2)CC1 (stereo not drawn) [Compound 719] | < 4.35 | < 4.35 |  | 
CC(C)(C)OC(=O)N1CCC(c2nc(-c3ccc4cnn(C5CCCOC5)c4c3)no2)CC1 (stereo not drawn) [Compound 720] | < 4.35 | 5.71 |  | 
CC(C)(C)OC(=O)N1CCN(c2nc(-c3ccc4cnn(C5CCC5)c4c3)no2)CC1 [Compound 721] | < 4.35 | 5.78 |  | 
CC(C)n1ncc2ccc(-c3nc(C4CCN(C(=O)C5(O)CC5)CC4)no3)cc21 [Compound 722] | < 4.35 | 5.86 |  | 
CC(C)c1noc2ccc(-c3noc(C4CCNCC4)n3)cc12 [Compound 723] | < 4.35 | < 4.35 |  | 
CC1(OC(=O)N2CC(c3nc(-c4ccc5cnn(C6COC6)c5c4)no3)C2)CC1 [Compound 724] | < 4.35 | 5.90 |  | 
O=C(c1ccccc1F)N1CCN(c2noc(-c3ccc4cnn(C5COC5)c4c3)n2)CC1 [Compound 725] | 5.22 | 7.96 |  | 
O=C(c1ccccc1Cl)N1CCN(c2noc(-c3ccc4cnn(C5COC5)c4c3)n2)CC1 [Compound 726] | 5.25 | 8.00 |  | 
CC(C)(C)CC(=O)N1CCC(c2nc(-c3ccc4cnn(C(=O)C5CCO5)c4c3)no2)CC1 (stereo not drawn) [Compound 727] | < 4.35 | < 4.35 |  | 
CC(C)(C)OC(=O)N1CCC(c2nc(-c3ccc4cnn(C5CNC5)c4c3)no2)CC1 [Compound 728] | < 4.35 | 6.90 |  | 
CC(C)(C)OC(=O)N1CCN(c2nc(-c3ccc4cn(C5CCC5)nc4c3)no2)CC1 [Compound 729] | < 4.35 | < 4.35 |  | 

SMILES | pIC50 [1, 3] | pIC50 [2, 4] | pIC50 ([1]; humanized yeast strain, 40 h) | pIC50 ([2]; humanized yeast strain, 40 h)
CC(C)(C)OC(=O)N1CCC(c2nc(-c3ccc4cnn(C5CCC5)c4c3)no2)CC1 [Compound 730] | < 4.35 | 6.14 |  | 
CC(C)(C)OC(=O)N1CCC(c2nc(-c3ccc4cn(C5CCC5)nc4c3)no2)CC1 [Compound 731] | < 4.35 | < 4.35 |  | 
CC(C)(C)CC(=O)N1CCC(c2nc(-c3ccc4cn[nH]c4c3)no2)CC1 [Compound 732] | < 4.35 | 4.50 |  | 
CC(C)n1ncc2ccc(-c3ccc(C4CCN(C(=O)OC(C)(C)C)C4)nn3)cc21 (stereo not drawn) [Compound 733] | < 4.35 | 5.56 |  | 
COC(=O)N1CCC(c2nc(-c3ccnc(Cl)c3)no2)CC1 [Compound 734] | < 4.35 | < 4.35 |  | 
CC1(OC(=O)N2CCN(c3noc(-c4ccc5cnn(C6COC6)c5c4)n3)CC2)CC1 [Compound 735] | 5.40 | 8.00 |  | 
CC(C)(C)OC(=O)N1CCC(c2nc(-c3ccc4cnn(C(C)(C)CO)c4c3)no2)CC1 [Compound 736] | 4.49 | 6.59 |  | 
CN(C)CC(=O)N1CCN(c2nc(-c3ccc4cnn(C5COC5)c4c3)no2)CC1 [Compound 737] | < 4.35 | < 4.35 |  | 
C=C(F)/C=C/n1ncc2ccc(-c3noc(C4CCN(C(=O)OC(C)(C)C)CC4)n3)cc21 [Compound 738] | < 4.35 | < 4.35 |  | 
C=C(F)/C=C/n1cc2ccc(-c3noc(C4CCN(C(=O)OC(C)(C)C)CC4)n3)cc2n1 [Compound 739] | < 4.35 | < 4.35 |  | 
O=C(c1nccs1)N1CCN(c2nc(-c3ccc4cnn(C5COC5)c4c3)no2)CC1 [Compound 740] | < 4.35 | 5.84 |  | 
CC(C)(C)OC(=O)N1CCC(c2nc(-c3cccc(C(=O)N4CCC4)c3)no2)CC1 [Compound 741] | < 4.35 | 5.11 |  | 
CC(C)(C)OC(=O)N1CCC(c2nc(-c3ccc4cnn(C5CC(F)(F)C5)c4c3)no2)CC1 [Compound 742] | < 4.35 | 5.30 |  | 
CC(C)n1ncc2ccc(-c3noc(N4CCC(C5COC5)CC4)n3)cc21 [Compound 743] | < 4.35 | 4.83 |  | 
CC(C)n1ncc2ccc(-c3noc(N4CCC5(CCO5)CC4)n3)cc21 [Compound 744] | < 4.35 | < 4.35 |  | 
CNC(=O)c1nc(-c2ccc3c(C)nn(C)c3c2)no1 [Compound 745] | < 4.35 | < 4.35 |  | 
CC(C)(C)OC(=O)N1CCC(c2nc(-c3ccnc(Cl)c3)no2)CC1 [Compound 747] |  |  | < 4.35 | 4.57
COC1(C(=O)N2CCC(C)(c3nc(-c4ccc5cnn(C(C)C)c5c4)no3)CC2)CC1 [Compound 748] |  |  | < 4.35 | 5.67
CC(C)(C)CCC(=O)N1CC(c2nc(-c3ccc4cnn(C5COC5)c4c3)no2)C1 [Compound 749] |  |  | < 4.35 | 4.68

SMILES | pIC50 [1, 3] | pIC50 [2, 4] | pIC50 ([1]; humanized yeast strain, 40 h) | pIC50 ([2]; humanized yeast strain, 40 h)
CC(C)(C)OC(=O)N1CCC(c2noc(-c3ccc4cnn(C5COC5)c4c3)n2)CC1 [Compound 750] |  |  | 5.49 | 8.00
c1cc2cnn(C3COC3)c2cc1-c1nc(N2CCNCC2)no1 [Compound 751] |  |  | < 4.35 | < 4.35
c1cc2cnn(C3COC3)c2cc1-c1nc(C2CCNCC2)no1 [Compound 752] |  |  | < 4.35 | < 4.35
CC(C)(C)OC(=O)N1CCC(c2nc(-c3ccc4cnn(C5(C)COC5)c4c3)no2)CC1 [Compound 753] |  |  | < 4.35 | 6.23
CC(C)(C)OC(=O)N1CCN(c2noc(-c3ccnc(Cl)c3)n2)CC1 [Compound 754] |  |  | < 4.35 | 4.78
CC(C)n1ncc2ccc(-c3noc(C4CCN(C(=O)C56CCC(F)(CC5)CC6)CC4)n3)cc21 [Compound 755] |  |  | < 4.35 | 5.27
CC(C)n1ncc2ccc(-c3noc(C4CCN(C(=O)C56CC(F)(C5)C6)CC4)n3)cc21 [Compound 756] |  |  | < 4.35 | 5.36
CC(C)n1ncc2ccc(-c3noc(C4CCN(C(=O)C56CC(C(F)(F)F)(C5)C6)CC4)n3)cc21 [Compound 757] |  |  | < 4.35 | 5.31
CC(C)n1ncc2ccc(-c3noc(C4CCN(C(=O)c5ncc(Cl)o5)CC4)n3)cc21 [Compound 758] |  |  | < 4.35 | 5.28
CC(C)n1nc(CCN(C)C)c2ccc(-c3noc(C4CCN(C(=O)OC(C)(C)C)CC4)n3)cc21 [Compound 759] |  |  | < 4.35 | < 4.35
CC(=O)NCCc1nn(C(C)C)c2cc(-c3noc(C4CCN(C(=O)OC(C)(C)C)CC4)n3)ccc12 [Compound 760] |  |  | < 4.35 | < 4.35
CC(C)n1nc(CCN)c2ccc(-c3noc(C4CCN(C(=O)OC(C)(C)C)CC4)n3)cc21 [Compound 761] |  |  | < 4.35 | < 4.35
CC(C)n1ncc2ccc(-c3nc(N4CCC5(CCO5)CC4)no3)cc21 [Compound 762] |  |  | < 4.35 | 5.28
CC(C)n1ncc2ccc(-c3noc(N4CCC(O)(CCCl)CC4)n3)cc21 [Compound 763] |  |  | 4.53 | 4.74
CC(C)n1ncc2ccc(-c3noc(N4C[C@H]5CN(C(=O)C(C)(C)C)C[C@H]5C4)n3)cc21 [Compound 764] |  |  | < 4.35 | 4.78
CC(C)n1ncc2ccc(-c3noc(N4CCC(C(CO)CCl)CC4)n3)cc21 (stereo not drawn) [Compound 765] |  |  | 4.48 | 4.71
CC(C)n1nc(CCS(C)(=O)=O)c2ccc(-c3noc(C4CCN(C(=O)OC(C)(C)C)CC4)n3)cc21 [Compound 766] |  |  | < 4.35 | < 4.35
CC(C)n1nc(CCS(C)(=O)=O)c2ccc(-c3noc(C4CCN(C(=O)OC(C)(C)C)CC4)n3)cc21 [Compound 767] |  |  | < 4.35 | 8.00
CC(C)(C)OC(=O)N1C[C@@H]2[C@H](C1)[C@H]2C(=O)NCc1ccncc1 [Compound 768] |  |  | < 4.35 | < 4.35
